Measurements: US9856254B2, “Alkoxy substituted imidazoquinolines” (3M INNOVATIVE PROPERTIES COMPANY, priority 2003, dated 2018)
Values joined by “and” are separate entries in the source; they are usually repeats but may differ in a detail not shown here. Identical values can stand only once. Counter-ions that a name gives are not always drawn.

Row | SMILES | melting point
1 | CCOCc1nc2c(N)nc3cc(OC4CCNCC4)ccc3c2n1CC(O)CO (centres unmarked) (as salt: hydrochloride) | 278 to 280 °C
2 | CCCn1c(COCC)nc2c(N)nc3ccc(OCCNC(=O)N4CCOCC4)cc3c21 (as salt: hydrochloride) [Example 4, N-(2-{[4-Amino-2-(ethoxymethyl)-1-propyl-1H-imidazo[4,5-c]quinolin-8-yl]oxy}ethyl)morpholine-4-carboxamide] | 200 to 202 °C
3 | CCCn1c(COCC)nc2c(N)nc3ccc(OCCNC(=O)C(C)C)cc3c21 (as salt: hydrochloride) [Example 5, N-(2-{[4-Amino-2-(ethoxymethyl)-1-propyl-1H-imidazo[4,5-c]quinolin-8-yl]oxy}ethyl)-2-methylpropanamide hydrochloride] | 240 to 242 °C
4 | CCOCc1nc2c(N)nc3cc(OCCN)ccc3c2n1CC(O)CO (centres unmarked) (as salt: hydrochloride) [Example 373, 3-[4-Amino-7-(2-aminoethoxy)-2-(ethoxymethyl)-1H-imidazo[4,5-c]quinolin-1-yl]propane-1,2-diol dihydrochloride] | 221 to 223 °C
5 | CCOCc1nc2c(N)nc3cc(OCCCN4CCCC4=O)ccc3c2n1CCCCN (as salt: hydrochloride) [Example 398, 1-(3-{[4-Amino-1-(4-aminobutyl)-2-(ethoxymethyl)-1H-imidazo[4,5-c]quinolin-7-yl]oxy}propyl)pyrrolidin-2-one dihydrochloride] | > 250 °C
6 | CCc1nc2c(N)nc3cc(OS(C)(=O)=O)ccc3c2n1CCOc1ccccc1 (as salt: methanesulfonate) [Example 367, 4-Amino-2-ethyl-1-(2-phenoxyethyl)-1H-imidazo[4,5-c]quinolin-7-yl methanesulfonate] | 213 to 214.5 °C
7 | CCCCc1nc2c(N)nc3ccc(OCCCCC(=O)N4CCOCC4)cc3c2n1C (as salt: trifluoroacetate) [Example 31, 2-Butyl-1-methyl-8-[(5-morpholin-4-yl-5-oxopentyl)oxy]-1H-imidazo[4,5-c]quinolin-4-amine trifluoroacetate] | 155.5 to 156.2 °C
8 | CCCc1nc2c(N)nc3cc(OCC(=O)c4ccccc4)ccc3c2n1CC(C)C [Example 1, 2-(4-Amino-1-(2-methylpropyl)-2-propyl-1H-imidazo[4,5-c]quinolin-7-yloxy)-1-phenylethanone] | 178 to 180 °C
9 | CCCn1c(COCC)nc2c(N)nc3ccc(OCCN)cc3c21 [Example 2, 8-(2-Aminoethoxy)-2-ethoxymethyl-1-propyl-1H-imidazo[4,5-c]quinolin-4-amine] | 157 to 159 °C
10 | CCCn1c(COCC)nc2c(N)nc3ccc(OCCNS(C)(=O)=O)cc3c21 [Example 3, N-[2-(4-Amino-2-ethoxymethyl-1-propyl-1H-imidazo[4,5-c]quinolin-8-yloxy)ethyl]methanesulfonamide] | 178 to 179.5 °C and 182 to 184.5 °C
11 | CCCn1c(COCC)nc2c(N)nc3ccc(OCCNC(=O)N4CCOCC4)cc3c21 [Example 4, N-(2-{[4-Amino-2-(ethoxymethyl)-1-propyl-1H-imidazo[4,5-c]quinolin-8-yl]oxy}ethyl)morpholine-4-carboxamide] | 203 to 208 °C
12 | CCCn1c(COCC)nc2c(N)nc3ccc(OCCNC(=O)C4CCCO4)cc3c21 (centres unmarked) [Example 6, N-(2-{[4-Amino-2-(ethoxymethyl)-1-propyl-1H-imidazo[4,5-c]quinolin-8-yl]oxy}ethyl)tetrahydrofuran-2-carboxamide] | 202.5 to 204.5 °C
13 | CCCc1nc2c(N)nc3cc(OCCCNC(=O)OC(C)(C)C)ccc3c2n1CC(C)C [Example 7, tert-Butyl 3-{[4-amino-1-(2-methylpropyl)-2-propyl-1H-imidazo[4,5-c]quinolin-7-yl]oxy}propylcarbamate] | 162.5 to 164 °C
14 | CCCc1nc2c(N)nc3cc(OCCCN)ccc3c2n1CC(C)C [Example 8, 7-(3-Aminopropoxy)-1-(2-methylpropyl)-2-propyl-1H-imidazo[4,5-c]quinolin-4-amine] | 173 to 174 °C
15 | Cc1nc2c(N)nc3cc(OCCNC(=O)OC(C)(C)C)ccc3c2n1CC(C)C [Example 9, tert-Butyl 2-{[4-amino-2-methyl-1-(2-methylpropyl)-1H-imidazo[4,5-c]quinolin-7-yl]oxy}ethylcarbamate] | 226.9 to 228.2 °C
16 | CCCc1nc2c(N)nc3cc(OCCCNS(C)(=O)=O)ccc3c2n1CC(C)C [Example 11, N-{3-[4-Amino-1-(2-methylpropyl)-2-propyl-1H-imidazo[4,5-c]quinolin-7-yloxy]propyl}methanesulfonamide] | 166.5 to 168.5 °C
17 | CCCc1nc2c(N)nc3cc(OCCCN4CCCS4(=O)=O)ccc3c2n1CC(C)C [Example 13, 7-[3-(1,1-Dioxidoisothiazolidin-2-yl)propoxy]-1-(2-methylpropyl)-2-propyl-1H-imidazo[4,5-c]quinolin-4-amine] | 142 to 144 °C
18 | CCCc1nc2c(N)nc3cc(OCCCNS(=O)(=O)CCc4cccc5ccccc45)ccc3c2n1CC(C)C [Example 14, N-(3-{[4-Amino-1-(2-methylpropyl)-2-propyl-1H-imidazo[4,5-c]quinolin-7-yl]oxy}propyl)-2-(1-naphthyl)ethanesulfonamide] | 164 to 168 °C

Row | SMILES | melting point
19 | CCCc1nc2c(N)nc3cc(OCCCNC(=O)C(C)C)ccc3c2n1CC(C)C [Example 15, N-{3-[4-Amino-1-(2-methylpropyl)-2-propyl-1H-imidazo[4,5-c]quinolin-7-yloxy]propyl}-2-methylpropanamide] | 179 to 181 °C
20 | CCCc1nc2c(N)nc3cc(OCCCNC(=O)c4cccnc4)ccc3c2n1CC(C)C [Example 16, N-{3-[4-Amino-1-(2-methylpropyl)-2-propyl-1H-imidazo[4,5-c]quinolin-7-yloxy]propyl}nicotinamide] | 172 to 174 °C
21 | Cc1nc2c(N)nc3cc(OCCNC(=O)C(C)C)ccc3c2n1CC(C)C [Example 17, N-{2-[4-Amino-2-methyl-1-(2-methylpropyl)-1H-imidazo[4,5-c]quinolin-7-yloxy]ethyl}-2-methylpropanamide] | 205 to 206 °C
22 | CCCc1nc2c(N)nc3cc(OCCN4CCCC4=O)ccc3c2n1CC(C)C [Example 18, 1-{2-[4-Amino-1-(2-methylpropyl)-2-propyl-1H-imidazo[4,5-c]quinolin-7-yloxy]ethyl}pyrrolidin-2-one] | 206 to 208 °C
23 | Cc1nc2c(N)nc3cc(OCCNC(=O)N4CCOCC4)ccc3c2n1CC(C)C [Example 19, N-(2-{[4-Amino-2-methyl-1-(2-methylpropyl)-1H-imidazo[4,5-c]quinolin-7-yl]oxy}ethyl)morpholine-4-carboxamide] | 215 to 219 °C (dec.)
24 | CCCc1nc2c(N)nc3cc(OCCCNC(=O)N4CCOCC4)ccc3c2n1CC(C)C [Example 20, N-(3-{[4-Amino-2-propyl-1-(2-methylpropyl)-1H-imidazo[4,5-c]quinolin-7-yl]oxy}propyl)morpholine-4-carboxamide] | 145 °C
25 | CCCc1nc2c(N)nc3cc(OCCCNC(=O)NS(=O)(=O)c4ccc(F)cc4)ccc3c2n1CC(C)C [Example 21, N-{[(3-{[4-Amino-1-(2-methylpropyl)-2-propyl-1H-imidazo[4,5-c]quinolin-7-yl]oxy}propyl)amino]carbonyl}-4-fluorobenzenesulfonamide] | 194 to 198 °C
26 | CCCc1nc2c(N)nc3cc(OCCC4CCN(C(=O)OC(C)(C)C)CC4)ccc3c2n1CC(C)C [Example 22, tert-Butyl 4-(2-{[4-amino-1-(2-methylpropyl)-2-propyl-1H-imidazo[4,5-c]quinolin-7-yl]oxy}ethyl)piperidine-1-carboxylate] | 196.4 to 199.6 °C
27 | Cc1nc2c(N)nc3cc(OCCC4CCN(C(=O)C(C)C)CC4)ccc3c2n1CC(C)C [Example 26, 1-(4-{2-[4-Amino-2-methyl-1-(2-methylpropyl)-1H-imidazo[4,5-c]quinolin-7-yloxy]ethyl}piperidin-1-yl)-2-methylpropan-1-one] | 205.1 to 207.1 °C
28 | Cc1nc2c(N)nc3cc(OCCC4CCN(C(=O)C5CCCC5)CC4)ccc3c2n1CC(C)C [Example 27, 7-{2-[1-(Cyclopentylcarbonyl)piperidin-4-yl]ethoxy}-2-methyl-1-(2-methylpropyl)-1H-imidazo[4,5-c]quinolin-4-amine] | 235.7 to 238.1 °C
29 | Cc1nc2c(N)nc3cc(OCCC4CCN(C(=O)N5CCOCC5)CC4)ccc3c2n1CC(C)C [Example 28, 2-Methyl-1-(2-methylpropyl)-7-{2-[1-(morpholin-4-ylcarbonyl)piperidin-4-yl]ethoxy}-1H-imidazo[4,5-c]quinolin-4-amine] | 205 to 208 °C
30 | CCc1nc2c(N)nc3cc(OCC(=O)N4CCOCC4)ccc3c2n1CC(C)C [Example 30, 2-Ethyl-1-(2-methylpropyl)-7-(2-morpholin-4-yl-2-oxoethoxy)-1H-imidazo[4,5-c]quinolin-4-amine] | 219 to 220 °C
31 | CCCCc1nc2c(N)nc3ccc(OCC(=O)N4CCOCC4)cc3c2n1C [Example 32, 2-Butyl-1-methyl-8-(2-morpholin-4-yl-2-oxoethoxy)-1H-imidazo[4,5-c]quinolin-4-amine] | 256.8 to 257.2 °C
32 | CCCCc1nc2c(N)nc3ccc(OCC(=O)N4CCCCC4)cc3c2n1C [Example 33, 2-Butyl-1-methyl-8-(2-oxo-2-piperidin-1-ylethoxy)-1H-imidazo[4,5-c]quinolin-4-amine] | 222.5 to 223.4 °C
33 | CCCCc1nc2c(N)nc3ccc(OCC(=O)N(C)Cc4ccccc4)cc3c2n1C [Example 34, 2-[(4-Amino-2-butyl-1-methyl-1H-imidazo[4,5-c]quinolin-8-yl)oxy]-N-benzyl-N-methylacetamide] | 167.4 to 168.8 °C
34 | CCCCc1nc2c(N)nc3ccc(OCC(=O)N(CC)CC)cc3c2n1C [Example 35, 2-[(4-Amino-2-butyl-1-methyl-1H-imidazo[4,5-c]quinolin-8-yl)oxy]-N,N-diethylacetamide] | 185.9 to 188.1 °C
35 | CCCCc1nc2c(N)nc3ccc(OCC(=O)N(CCOC)CCOC)cc3c2n1C [Example 36, 2-[(4-Amino-2-butyl-1-methyl-1H-imidazo[4,5-c]quinolin-8-yl)oxy]-N,N-bis(2-methoxyethyl)acetamide] | 125 to 128 °C
